Data as given in BigSolDB 2.1.

CC(=O)Nc1ccc(O)cc1
solubility (mole fraction)
Conditions	293.2 K	298.2 K	303.2 K	308.2 K	313.2 K
in acetonitrile	0.00682	0.00805	0.00935	0.0107	0.0118
in water	0.00164	0.00202	0.00229	0.00284	0.00313
